Results as given in patent US20190350955A1, “METHODS AND PHARMACEUTICAL COMPOSITIONS FOR THE TREATMENT OF CARDIOMYOPATHIES” (INSERM (Institut National de la Sante et de la Recherche …, priority 2016, published 2019).

Key:
Nmrk2 promoter = Nmrk2 promoter luciferase reporter assay in NRC; type: cell-based, rat; settings: NRC, AICAR 500 μM
Method: Isolation and Treatments of Neonatal Rat Cardiomyocytes (NRC) NRC were isolated as described previously (Diguet et al., 2011). 1-day-old rat pups were killed by decapitation and the cardiac ventricles were harvested and minced into 1 to 2-mm wide cubes with scissors. After washing with Tyrode solution, heart fragments were subjected up to 10 rounds of digestion with 0.05 mg/ml of Liberase Blendzyme 4 (Roche Applied Science) in 10 ml oxygenated Tyrode solution under agitation at 37° C. for 10 minutes. The supernatant of the first digestion was discarded and the following digestions were centrifuged and the cell pellet dissociated in 2 ml of DMEM, 10% FCS. The different fractions were pooled and centrifuged on a discontinuous Percoll gradient (bottom 58.5%. top 40.5%. 30 min. 3000 rpm) to enrich in cardiomyocytes at the interface between the 2 Percoll solutions. Non cardiac cells containing mainly fibroblasts were at the top of the tubes. Neonatal cardiomyocytes were seeded at a density 5×10^5 cells/well in 6-well plates coated with 10 μg/ml of laminin (BD Biosciences) in DMEM without pyruvate, with glucose 4.5 g/l, 10% horse serum, 5% FCS and cultured at 37° C. in 1% CO, atmosphere. To assay the impact on NAD^+ and Nmrk2 expression, Azaserin and FK866 drugs were added in the culture medium at day 5 and renewed everyday when the treatment was prolonged over several days. The same was done for NAD^+, NR and AICAR (5-aminoimidazole-4-carboxamide-1-β-D-ribofuranoside). AICAR was administrated for 24 h only. Doses are indicated in the legends. For treatment of transfected cells (see next section), AICAR, FK866 and PPAR agonists and antagonist were administrated 1 day after transfection. PPAR agonists: GW7647 for PPARα, GW501516 for PPARβ/δ and GW1929 for PPARγ; PPAR antagonists: GW6471 PPARα, GSK3787 for PPARβ/δ and GW9662 for PPARγ were ordered from SIGMA ALDRICH CHIMIE, Saint Quentin Fallavier, France.
The transcription initiation site of mouse Nmrk2 promoter was determined by 5′RACE and was conform to the reported site in the Genebank (NM_027120.2). The promoter of the mouse Nmrk2 gene was cloned from C57B16/N genomic DNA by PCR, and inserted into a pGL4.10[luc2] luciferase reporter plasmid (Promega prod no E6651). Subsequent deletions were performed by enzymatic digestion or primer mediated subcloning of the original fragment. 2.5×10^5 cardiomyocytes in 12-well plates were co-transfected at day 2 of culture with 1 μg of Nmrk2 pGL4.10[luc2] constructs and 100 ng of pGL4.73[hRluc/SV40] Vector (Promega prod no E6911) as an internal control of transfection efficiency using Lipofectamine 2000 (Lifetechnology) as indicated by the supplier. In the case of AICAR treatment, Luciferase activity was analyzed 48 h later with the Dual-Luciferase Assay System (Promega).
The pcDNA3 vectors harboring dominant negative AMPK, PPARα, PPARβ and PPARγ as well as RXR genes were kindly provided by Pr. Michel Raymondjean (El Hadri et al. (2015). AMPK Signaling Involvement for the Repression of the IL-1beta-Induced Group IIA Secretory Phospholipase A2 Expression in VSMCs. Journal 10, e0132498; Ravaux et al. (2007). Inhibition of interleukin-1 beta-induced group 11A secretory phospholipase A2 expression by peroxisome proliferator-activated receptors (PPARs) in rat vascular smooth muscle cells: cooperation between PPARbeta and the proto-oncogene BCL-6. Journal 27, 8374-8387; Woods et al. (2000). Characterization of the role of AMP-activated protein kinase in the regulation of glucose-activated gene expression using constitutively active and dominant negative forms of the kinase. Journal 20, 6704-6711). These vectors were cotransfected at a dose of 100 ng/well in 24-well plates with 500 ng of Nmrk2 luciferase constructs.

[1] = tested on: neonatal rat cardiomyocytes (NRC); assay: Western blot of AMPK phosphorylation and Nmrk2 protein in NRC; type: cell-based; settings: AICAR 500 μM, 48 h
Method: Proteins were homogenized in a lysis buffer (Tris-HCl pH 7.5 50 mM, NP40 Igepal 1%, NaCl 150 mM, EDTA 1 mM, DTT 1 mM, Glycerol 10%) in the presence of proteases.
phosphatases and deacetylases inhibitors (PMSF 0.5 mM, NaF 50 mM, PPiNa 5 mM, Roche protease cocktail inhibitor 1/100, Santa Cruz deacetylase cocktail inhibitor 1/100). Equal amounts of proteins (10 to 20 μg) were separated on SDS-PAGE and transferred to nitrocellulose membranes. Proteins were detected by overnight incubation at 4° C. with primary antibodies, followed by IRDye 700 or IRDye800 fluorescent antibodies (Li-Cor Biosciences. 1/2500) and scanned on an Odyssey CLx Infrared Imaging System (Li-Cor Biosciences).
(§1) Isolation and Treatments of Neonatal Rat Cardiomyocytes (NRC) NRC were isolated as described previously (Diguet et al., 2011). 1-day-old rat pups were killed by decapitation and the cardiac ventricles were harvested and minced into 1 to 2-mm wide cubes with scissors. After washing with Tyrode solution, heart fragments were subjected up to 10 rounds of digestion with 0.05 mg/ml of Liberase Blendzyme 4 (Roche Applied Science) in 10 ml oxygenated Tyrode solution under agitation at 37° C. for 10 minutes. The supernatant of the first digestion was discarded and the following digestions were centrifuged and the cell pellet dissociated in 2 ml of DMEM, 10% FCS. […]

[2] = tested on: neonatal rat cardiomyocytes (NRC); assay: NAD+ and NADH levels in NRC; type: cell-based; settings: AICAR treatment
Method: For cell cultures, the wells were washed twice with PBS and scraped on ice in HClO4 0.5M (100 μl/well in 12-well plate). Acid extracts were neutralized with a half volume of KOH 1M/K2HPO4-KH2PO4 0.33 M pH 7.5. Heat denaturation was selective for NAD^+ in this condition. Measures were made on a volume of […], of non heated extracts (NADt) or 25 μl of heated extracts (NADH) (diluted 1/10 to 1/20).
For both types of extracts (buffered ethanol or HClO4) we added 100 μL of reaction buffer (600 mM ethanol, 0.5 mM 3-(4.5-dimethylthiazol-2-yl)-2.5-diphenyltetrazolium bromide (MTT), 2 mM phenazine ethosulfate (PES), 120 mM Bicine (pH 7.8), yeast alcohol dehydrogenase (SIGMA A3263>300 u/mg.) 0.05 mg/ml. Kinetics of the reaction (OD at 550 nm, every 30 seconds for 40 minutes) was followed on a TECAN Infinite F500 microplate reader. NAD was quantified in duplicates for each sample by comparison to a range of standard NAD^+ concentration using linear regression curve equation method between NAD^+ standard concentrations and the slope of the reaction in OD units/sec. NAD^+/NADH was obtained by the formula ([NADt]−[NADH])/[NADH]. Cell extracts were quantified for protein concentration determined by Bradford assay.
Isolation and Treatments of Neonatal Rat Cardiomyocytes (NRC) NRC were isolated as described previously (Diguet et al., 2011). […]

Nmrk2 = assay: RT qPCR of Nmrk2 mRNA in NRC; type: cell-based, rat; settings: AICAR treatment
Method: cDNAs were reverse transcribed from RNA (1.5 μg) extracted in TRIzol (Thermofisher) from cell cultures and tissues using the Superscript II Reverse Transcriptase (Life Technologies). Quantitative PCR was carried out on a Light Cycler 480 (Roche Diagnostics) using Fast Start SYBR Green Master (Roche Diagnostics). Quantification of gene expression was calculated as R=2^ΔCt(Ref Cp−target Cp), with Hprt used as a as reference. Primers were designed using the NCBI Primer-BLAST software. Primer sequences are available on request.
as §1, with “FCS. The different fractions were pooled and centrifuged on a discontinuous Percoll gradient (bottom 58.5%. top 40.5%. 30 min. 3000 rpm) to enrich in cardiomyocytes at the interface between the 2 Percoll solutions.” for “FCS.”

full-length p3009-Luc Nmrk2 reporter response (Nmrk2 promoter): highly responsive
p581-Luc Nmrk2 reporter response (Nmrk2 promoter): modestly responsive
Compound: NC(=O)c1ncn([C@@H]2O[C@H](COP(=O)(O)O)[C@@H](O)[C@H]2O)c1N [AICAR, 5-Aminoimidazole-4-carboxamide ribonucleotide]
AMPK phosphorylation [1]: stimulated
Nmrk2 expression at the protein level [1]: induced
NAD+ or NADH levels [2]: did not modulate
Nmrk2 expression (mRNA) (Nmrk2): robustly induced
